# Measured values from patent publication US6495591B1, “Fungal efflux pump inhibitors” (Essential Therapeutics, Inc., priority 1997, dated 2002).
# Assays:
# [1] = tested on: P388/ADM, adriamycin resistant subline; experiment: Adriamycin cytotoxicity (MTT), P-glycoprotein assay
# Description: (§1) The inhibitory effect of milbemycin β1 against the mammalian P-glycoprotein multi-drug resistant pump was determined following the procedure described by Tsuruo et al (Cancer Res., 1981. 41:1967-1972) with slight modification. The cytotoxicity of antitumor agent, adriamycin, against adriamycin sensitive P388 cell line (mouse leukemia) and its adriamycin resistant subline line (P388/ADM) was measured in the presence of various concentrations of milbemycin β1. […] The assay is performed in serum-free media containing 20 μM of 2-mercaptoethanol. Chemosensitivity to adriamycin was determined […] based on the reduction of MTT (3-[4,5-dimethylthiazol-2-yl]-2,5-diphenyltetrazolium bromide) into blue formazan.
# [2] = tested on: P388 cell line (mouse leukemia), adriamycin sensitive; experiment: as above
# Description: as §1
# [3] = tested on: mammalian P-glycoprotein multi-drug resistant pump; type: cell-based, mouse; conditions: no inhibitor (None)
# Description: as §1
# YEM 51 C. glabrata wt = experiment: FEPI MIC with/without 1/8 fluconazole MIC at 24 hrs (Table 11); type: cell-based; conditions: YEM 51, 24 hrs, 80% inhibition; for MIC of compound in the presence of fluconazole (+): 1/8 × MIC of fluconazole
# [4] = biological target: pCDR2 (ABC) efflux pump in S. cerevisiae YEM-37 (Candida albicans, UniProt P78595); experiment: cell-based; type: cell-based, C. albicans; conditions: YEM-37 pCDR2; fluconazole fixed at FLUhalf 1
# Sequence of pCDR2 (ABC) efflux pump in S. cerevisiae YEM-37 (P78595 whole entry): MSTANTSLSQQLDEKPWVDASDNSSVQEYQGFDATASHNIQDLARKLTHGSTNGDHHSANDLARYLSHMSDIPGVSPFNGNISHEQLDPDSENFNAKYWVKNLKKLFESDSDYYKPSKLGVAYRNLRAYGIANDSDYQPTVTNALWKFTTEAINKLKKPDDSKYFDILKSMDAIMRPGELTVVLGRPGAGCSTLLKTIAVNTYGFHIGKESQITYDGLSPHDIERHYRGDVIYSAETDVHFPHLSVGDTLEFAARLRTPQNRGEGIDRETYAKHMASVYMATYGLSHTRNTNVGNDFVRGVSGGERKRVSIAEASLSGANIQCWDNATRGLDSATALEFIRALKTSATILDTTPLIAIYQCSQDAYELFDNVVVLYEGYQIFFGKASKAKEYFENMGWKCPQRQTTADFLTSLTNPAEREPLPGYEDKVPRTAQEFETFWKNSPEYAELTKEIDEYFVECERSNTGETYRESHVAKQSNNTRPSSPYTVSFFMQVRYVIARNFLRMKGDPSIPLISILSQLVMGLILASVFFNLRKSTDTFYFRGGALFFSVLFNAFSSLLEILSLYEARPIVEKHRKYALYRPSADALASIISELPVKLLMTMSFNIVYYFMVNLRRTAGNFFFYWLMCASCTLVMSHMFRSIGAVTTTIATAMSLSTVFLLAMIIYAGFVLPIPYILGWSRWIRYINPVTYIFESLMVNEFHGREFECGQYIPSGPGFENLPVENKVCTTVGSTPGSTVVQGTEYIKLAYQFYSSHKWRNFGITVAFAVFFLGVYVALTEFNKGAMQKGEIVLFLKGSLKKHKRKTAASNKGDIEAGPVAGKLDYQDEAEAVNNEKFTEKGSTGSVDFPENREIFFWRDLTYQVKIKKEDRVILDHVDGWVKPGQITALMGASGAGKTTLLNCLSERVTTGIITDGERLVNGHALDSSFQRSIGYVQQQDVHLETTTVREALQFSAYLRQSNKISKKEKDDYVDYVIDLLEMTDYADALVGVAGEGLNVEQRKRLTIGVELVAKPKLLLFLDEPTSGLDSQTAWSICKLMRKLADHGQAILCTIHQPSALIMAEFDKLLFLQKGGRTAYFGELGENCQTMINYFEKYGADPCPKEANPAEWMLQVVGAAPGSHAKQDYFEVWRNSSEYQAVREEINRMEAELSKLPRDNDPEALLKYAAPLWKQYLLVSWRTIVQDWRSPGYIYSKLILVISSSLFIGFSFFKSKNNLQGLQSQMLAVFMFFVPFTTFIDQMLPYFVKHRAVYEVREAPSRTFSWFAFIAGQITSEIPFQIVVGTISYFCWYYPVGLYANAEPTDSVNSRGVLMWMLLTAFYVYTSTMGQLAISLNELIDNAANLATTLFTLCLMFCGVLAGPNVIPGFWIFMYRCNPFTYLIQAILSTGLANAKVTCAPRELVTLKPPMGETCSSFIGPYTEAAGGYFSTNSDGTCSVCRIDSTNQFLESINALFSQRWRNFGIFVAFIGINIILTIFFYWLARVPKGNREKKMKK
# [5] = biological target: pCDRI (ABC) efflux pump in S. cerevisiae YEM-1 (Candida albicans, UniProt P43071); experiment: cell-based; type: cell-based, C. albicans; conditions: YEM-1 pCDRI; fluconazole fixed at FLUhalf 5.6
# Sequence of pCDRI (ABC) efflux pump in S. cerevisiae YEM-1 (P43071 whole entry): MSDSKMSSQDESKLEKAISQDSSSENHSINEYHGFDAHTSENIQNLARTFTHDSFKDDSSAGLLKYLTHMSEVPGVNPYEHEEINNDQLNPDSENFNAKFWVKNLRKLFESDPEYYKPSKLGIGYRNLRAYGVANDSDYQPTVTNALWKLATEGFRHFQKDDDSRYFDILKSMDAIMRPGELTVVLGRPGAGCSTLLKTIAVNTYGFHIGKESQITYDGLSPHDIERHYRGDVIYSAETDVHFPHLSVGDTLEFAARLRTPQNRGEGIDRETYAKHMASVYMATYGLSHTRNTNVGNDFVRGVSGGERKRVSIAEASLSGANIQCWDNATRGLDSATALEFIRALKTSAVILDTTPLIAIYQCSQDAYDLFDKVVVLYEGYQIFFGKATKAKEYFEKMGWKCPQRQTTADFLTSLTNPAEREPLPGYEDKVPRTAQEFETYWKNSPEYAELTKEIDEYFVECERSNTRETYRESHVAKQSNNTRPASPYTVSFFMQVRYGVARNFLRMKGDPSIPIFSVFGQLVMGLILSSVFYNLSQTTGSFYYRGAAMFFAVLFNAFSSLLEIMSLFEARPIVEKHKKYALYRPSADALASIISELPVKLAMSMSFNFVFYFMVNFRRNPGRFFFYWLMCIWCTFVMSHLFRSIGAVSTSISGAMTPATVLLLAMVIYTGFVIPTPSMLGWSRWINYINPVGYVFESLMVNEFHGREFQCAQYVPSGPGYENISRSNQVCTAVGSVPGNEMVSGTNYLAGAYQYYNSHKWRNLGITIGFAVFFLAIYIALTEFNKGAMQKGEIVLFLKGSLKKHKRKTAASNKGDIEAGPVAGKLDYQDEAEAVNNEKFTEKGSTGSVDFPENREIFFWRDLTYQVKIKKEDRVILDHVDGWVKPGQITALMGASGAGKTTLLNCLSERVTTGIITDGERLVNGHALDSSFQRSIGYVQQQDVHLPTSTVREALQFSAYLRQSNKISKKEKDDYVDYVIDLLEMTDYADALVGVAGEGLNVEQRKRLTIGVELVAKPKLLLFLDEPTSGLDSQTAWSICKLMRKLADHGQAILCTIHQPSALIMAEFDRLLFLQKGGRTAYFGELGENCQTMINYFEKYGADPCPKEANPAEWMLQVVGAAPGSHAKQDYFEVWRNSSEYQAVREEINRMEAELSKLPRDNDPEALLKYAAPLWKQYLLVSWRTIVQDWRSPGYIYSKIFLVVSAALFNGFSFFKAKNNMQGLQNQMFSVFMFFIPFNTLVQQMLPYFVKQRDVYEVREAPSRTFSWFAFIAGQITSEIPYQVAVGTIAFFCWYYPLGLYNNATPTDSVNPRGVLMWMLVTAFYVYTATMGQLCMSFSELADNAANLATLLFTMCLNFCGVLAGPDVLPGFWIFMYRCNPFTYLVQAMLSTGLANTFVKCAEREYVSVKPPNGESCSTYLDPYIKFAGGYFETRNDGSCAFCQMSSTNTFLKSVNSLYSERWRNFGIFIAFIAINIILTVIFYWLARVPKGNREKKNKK
# [6] = biological target: pFLU (MF) efflux pump in S. cerevisiae YEM-38 (Candida albicans, UniProt G1UB37); experiment: cell-based; type: cell-based, C. albicans; conditions: YEM-38 pFLU; fluconazole fixed at FLUhalf 2
# Sequence of pFLU (MF) efflux pump in S. cerevisiae YEM-38 (G1UB37 whole entry): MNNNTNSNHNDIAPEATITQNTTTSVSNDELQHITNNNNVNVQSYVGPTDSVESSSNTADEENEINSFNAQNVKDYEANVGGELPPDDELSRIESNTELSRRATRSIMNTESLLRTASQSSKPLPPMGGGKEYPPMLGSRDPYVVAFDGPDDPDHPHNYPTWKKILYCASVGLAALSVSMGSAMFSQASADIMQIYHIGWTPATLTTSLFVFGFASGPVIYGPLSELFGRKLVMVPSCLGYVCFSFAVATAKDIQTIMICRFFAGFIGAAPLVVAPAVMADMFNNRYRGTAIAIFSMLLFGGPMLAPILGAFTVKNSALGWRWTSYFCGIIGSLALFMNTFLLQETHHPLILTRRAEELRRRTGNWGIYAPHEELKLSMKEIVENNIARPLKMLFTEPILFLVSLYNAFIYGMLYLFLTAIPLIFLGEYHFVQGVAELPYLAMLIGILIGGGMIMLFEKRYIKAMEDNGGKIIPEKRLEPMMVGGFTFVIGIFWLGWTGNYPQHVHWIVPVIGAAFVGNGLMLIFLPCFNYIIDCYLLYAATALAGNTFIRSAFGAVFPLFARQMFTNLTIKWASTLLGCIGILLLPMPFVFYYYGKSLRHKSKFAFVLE
# [7] = tested on: YEM 27 C. albicans ΔCDR1ΔCDR2 ΔBENΔFLU1; experiment: microbe, parasite or virus in culture; type: cell-based; conditions: YEM 27, 24 hrs, 80% inhibition; for MIC of compound in the presence of fluconazole (+): 1/8 × MIC of fluconazole
# YEM 30 C. albicans wt = experiment: FEPI MIC with/without 1/8 fluconazole MIC at 24 hrs (Table 11); type: cell-based; conditions: YEM 30, 24 hrs, 80% inhibition; for MIC of compound in the presence of fluconazole (+): 1/8 × MIC of fluconazole
# [8] = tested on: YEM 15 C. albicans, CDR1CDR2 up; experiment: microbe, parasite or virus in culture; type: cell-based; conditions: YEM 15, 24 hrs, 80% inhibition; for MIC of compound in the presence of fluconazole (+): 1/8 × MIC of fluconazole
# [9] = tested on: YEM 13 C. albicans BEN up; experiment: microbe, parasite or virus in culture; type: cell-based; conditions: YEM 13, 24 hrs, 80% inhibition; for MIC of compound in the presence of fluconazole (+): 1/8 × MIC of fluconazole
# [10] = biological target: pCgCDR (ABC) efflux pump in S. cerevisiae YEM-39 (Candida glabrata, UniProt Q6FK23); experiment: cell-based; type: cell-based, C. glabrata; conditions: YEM-39 pCgCDR; fluconazole fixed at FLUhalf 4
# Sequence of pCgCDR (ABC) efflux pump in S. cerevisiae YEM-39 (Q6FK23 whole entry): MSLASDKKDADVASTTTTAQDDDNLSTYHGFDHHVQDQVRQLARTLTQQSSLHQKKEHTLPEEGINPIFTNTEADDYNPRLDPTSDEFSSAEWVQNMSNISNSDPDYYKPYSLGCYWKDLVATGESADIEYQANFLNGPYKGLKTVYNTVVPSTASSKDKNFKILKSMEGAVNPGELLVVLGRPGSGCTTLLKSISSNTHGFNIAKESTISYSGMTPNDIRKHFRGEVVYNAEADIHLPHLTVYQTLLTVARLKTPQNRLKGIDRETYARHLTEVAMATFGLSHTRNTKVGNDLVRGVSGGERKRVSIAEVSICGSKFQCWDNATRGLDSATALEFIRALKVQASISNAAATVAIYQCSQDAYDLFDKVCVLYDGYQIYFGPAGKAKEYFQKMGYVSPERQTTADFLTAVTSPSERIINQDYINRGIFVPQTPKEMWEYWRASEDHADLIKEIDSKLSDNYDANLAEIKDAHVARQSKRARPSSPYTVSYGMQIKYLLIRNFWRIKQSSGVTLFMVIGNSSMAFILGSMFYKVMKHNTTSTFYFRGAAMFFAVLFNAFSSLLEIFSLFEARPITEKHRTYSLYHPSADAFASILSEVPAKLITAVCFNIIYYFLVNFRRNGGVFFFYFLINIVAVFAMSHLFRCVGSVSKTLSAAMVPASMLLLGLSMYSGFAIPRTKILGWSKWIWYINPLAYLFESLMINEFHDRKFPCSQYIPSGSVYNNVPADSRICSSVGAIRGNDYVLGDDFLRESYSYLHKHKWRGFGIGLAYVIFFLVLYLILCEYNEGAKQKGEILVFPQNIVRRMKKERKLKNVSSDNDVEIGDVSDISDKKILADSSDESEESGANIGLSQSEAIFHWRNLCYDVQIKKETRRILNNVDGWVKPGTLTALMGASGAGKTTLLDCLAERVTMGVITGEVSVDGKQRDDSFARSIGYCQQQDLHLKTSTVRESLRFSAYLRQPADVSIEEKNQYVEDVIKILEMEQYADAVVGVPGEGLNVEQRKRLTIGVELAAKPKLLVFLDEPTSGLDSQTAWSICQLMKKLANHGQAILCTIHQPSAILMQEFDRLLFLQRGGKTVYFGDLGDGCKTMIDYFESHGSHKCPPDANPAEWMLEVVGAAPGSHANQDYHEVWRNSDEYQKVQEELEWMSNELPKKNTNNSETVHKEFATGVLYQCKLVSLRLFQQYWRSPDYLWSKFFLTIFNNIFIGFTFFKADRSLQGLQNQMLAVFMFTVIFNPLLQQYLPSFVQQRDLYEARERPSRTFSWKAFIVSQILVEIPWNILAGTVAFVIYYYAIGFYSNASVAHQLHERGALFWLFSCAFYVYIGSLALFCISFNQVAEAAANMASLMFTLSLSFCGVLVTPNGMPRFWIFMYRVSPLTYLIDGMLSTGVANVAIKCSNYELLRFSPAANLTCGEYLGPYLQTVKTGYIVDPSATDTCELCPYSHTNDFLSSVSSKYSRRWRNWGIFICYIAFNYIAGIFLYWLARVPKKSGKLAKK
# [11] = tested on: YEM 24 C. albicans ΔCDR1, ΔCDR2; experiment: microbe, parasite or virus in culture; type: cell-based; conditions: YEM 24, 24 hrs, 80% inhibition; for MIC of compound in the presence of fluconazole (+): 1/8 × MIC of fluconazole
# Aspergillus fumigatus = experiment: FEPI MICs in combination with 1/4 the azole's MIC (Table 12); type: cell-based; parameters: FEPI MIC (alone): unit not given here; conditions: for FEPI MIC with fluconazole, 60% Inh / FEPI MIC with fluconazole, 80% Inh: fluconazole 32 μg/ml (1/4 MIC); for FEPI MIC with fluconazole, 60% Inh / FEPI MIC with itraconazole, 60% Inh / FEPI MIC with ketoconazole, 60% Inh: 60% inhibition; for FEPI MIC with fluconazole, 80% Inh / FEPI MIC with itraconazole, 80% Inh / FEPI MIC with ketoconazole, 80% Inh / FEPI MIC (alone): 80% inhibition; for FEPI MIC with itraconazole, 60% Inh / FEPI MIC with itraconazole, 80% Inh: itraconazole 0.063 μg/ml (1/4 MIC); for FEPI MIC with ketoconazole, 60% Inh / FEPI MIC with ketoconazole, 80% Inh: ketoconazole 4 μg/ml (1/4 MIC); for FEPI MIC (alone): no azole, 35° C., CM Broth
# Description: The combinations were tested against a series of Candida strain with known expression of efflux pumps or with complete deletion of all known pumps and Aspergillus fumigatus. Results are reported as minimum inhibitory concentration (MIC) of […] in the presence or absence of […]. A total of 27 distinct milbemycins were studied.
# [12] = tested on: pCgBEN (MF) efflux pump in S. cerevisiae YEM-40; type: cell-based, C. glabrata
# [13] = biological target: pBEN (MF) efflux pump in S. cerevisiae YEM-2 (Candida albicans, UniProt P28873); experiment: cell-based; type: cell-based, C. albicans; conditions: YEM-2 pBEN; fluconazole fixed at FLUhalf 5.6
# YEM 53 C. krusei = experiment: FEPI MIC with/without 1/8 fluconazole MIC at 24 hrs (Table 11); type: cell-based; conditions: YEM 53, 24 hrs, 80% inhibition; for MIC of compound in the presence of fluconazole (+): 1/8 × MIC of fluconazole
# [14] = tested on: YEM 17 C. glabrata, CgCDR up; type: cell-based; conditions: 24 hrs, 80% inhibition; for MIC of compound in the presence of fluconazole (+): 1/8 × MIC of fluconazole
# [15] = tested on: C. krusei YEM-52 (ATCC 90878), wild type; experiment: Broth dilution MIC, fluconazole with/without milbemycin oxime (Table 6); type: cell-based; conditions: YEM-52; milbemycin oxime 2.5 μg/ml
# [16] = tested on: C. albicans YEM-15 (CDR1 & CDR2 overexpressor); type: cell-based
# [17] = tested on: C. krusei YEM-52 (ATCC 90878), wild type; experiment: Minimal concentration to reduce fluconazole MIC sixteen-fold (Table 7); type: cell-based; conditions: YEM-52, wild type
# C. albicans YEM-13 (BEN) = type: cell-based
# [18] = tested on: C. glabrata YEM-19 (CgCDR overexpressor); type: cell-based
Molecule,MIC of compound in the presence of fluconazole (+) (YEM 51 C. glabrata wt) [µg/mL],MIC of compound in the absence of fluconazole (−) (YEM 51 C. glabrata wt) [µg/mL],FEPIhalf (concentration needed to reduce activity of efflux pump by 50%) [4],FEPIhalf (concentration needed to reduce activity of efflux pump by 50%) [5],FEPIhalf (concentration needed to reduce activity of efflux pump by 50%) [6],MIC of compound in the presence of fluconazole (+) [7] [µg/mL],MIC of compound in the absence of fluconazole (−) [7] [µg/mL],MIC of compound in the presence of fluconazole (+) (YEM 30 C. albicans wt),MIC of compound in the absence of fluconazole (−) (YEM 30 C. albicans wt) [µg/mL],MIC of compound in the presence of fluconazole (+) [8],MIC of compound in the absence of fluconazole (−) [8] [µg/mL],MIC of compound in the presence of fluconazole (+) [9] [µg/mL],MIC of compound in the absence of fluconazole (−) [9] [µg/mL],FEPIhalf (concentration needed to reduce activity of efflux pump by 50%) [10],MIC of compound in the presence of fluconazole (+) [11] [µg/mL],MIC of compound in the absence of fluconazole (−) [11] [µg/mL],"FEPI MIC with fluconazole, 60% Inh (Aspergillus fumigatus)","FEPI MIC with fluconazole, 80% Inh (Aspergillus fumigatus)","FEPI MIC with itraconazole, 60% Inh (Aspergillus fumigatus)","FEPI MIC with itraconazole, 80% Inh (Aspergillus fumigatus)",also measured
"COc1cccc2c1C(=O)c1c(O)c3c(c(O)c1C2=O)C[C@@](O)(C(=O)CO)C[C@@H]3O[C@H]1C[C@H](N)[C@H](O)[C@H](C)O1 [Adriamycin, adriamycin, reference compound]",,,,,,,,,,,,,,,,,,,,,"Adriamycin TC50, P388/ADM [1]: 2.954 µg/mL; Adriamycin TC50, P388 [2]: 0.009 µg/mL; Ratio [P388/A]/[P388] [3]: 337"
LL-F2849α oxime [Compound 18],> 64,> 64,>64,>64,>64,> 64,> 64,≦0.03,> 64,> 64 µg/mL,> 64,> 64,> 64,>64,> 64,> 64,8,>64,>64,>64,"FEPI MIC with ketoconazole, 60% Inh (Aspergillus fumigatus): 0.125; FEPI MIC with ketoconazole, 80% Inh (Aspergillus fumigatus): 0.125; FEPI MIC (alone) (Aspergillus fumigatus): >64; FEPIhalf (concentration needed to reduce activity of efflux pump by 50%) [12]: >64; FEPIhalf (concentration needed to reduce activity of efflux pump by 50%) [13]: >64; MIC of compound in the presence of fluconazole (+) (YEM 53 C. krusei): > 64 µg/mL; MIC of compound in the absence of fluconazole (−) (YEM 53 C. krusei): > 64 µg/mL; MIC of compound in the presence of fluconazole (+) [14]: > 64 µg/mL; MIC of compound in the absence of fluconazole (−) [14]: > 64 µg/mL"
Milbemycin oxime [Compound 2],16,> 64,0.125,<0.06,>64,64,> 64,≦0.03,> 64,≦0.03,> 64,> 64,> 64,64,> 64,> 64,2,>64,>64,>64,"MIC of fluconazole, Flu + McOxm (2.5 μg/ml) [15]: 2 µg/mL; Minimal concentration required to reduce the MIC of fluconazole by sixteen-fold [16]: <0.07 µg/mL; Minimal concentration required to reduce the MIC of fluconazole by sixteen-fold [17]: 1.25 µg/mL; Minimal concentration required to reduce the MIC of fluconazole by sixteen-fold (C. albicans YEM-13 (BEN)): 80 µg/mL; Minimal concentration required to reduce the MIC of fluconazole by sixteen-fold [18]: >80 µg/mL; FEPI MIC with ketoconazole, 60% Inh (Aspergillus fumigatus): 0.5; FEPI MIC with ketoconazole, 80% Inh (Aspergillus fumigatus): 0.5; FEPI MIC (alone) (Aspergillus fumigatus): >64; FEPIhalf (concentration needed to reduce activity of efflux pump by 50%) [12]: >64; FEPIhalf (concentration needed to reduce activity of efflux pump by 50%) [13]: >64; MIC of compound in the presence of fluconazole (+) (YEM 53 C. krusei): 2 µg/mL; MIC of compound in the absence of fluconazole (−) (YEM 53 C. krusei): > 64 µg/mL; MIC of compound in the presence of fluconazole (+) [14]: 4 µg/mL; MIC of compound in the absence of fluconazole (−) [14]: > 64 µg/mL"
